PubChem BioAssay (NCI)
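Results reflect a 48-hour exposure of cells in 96-well plates to compound at five concentrations. GI50 marks 50% less growth. TGI: concentration producing complete growth inhibition.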

Assays:
Assay in all cases: NCI anticancer screen, dose series, 48 h
786-0 renal = test system: 786-0 renal
A498 renal = test system: A498 renal
A549 NSCLC = test system: A549 NSCLC
ACHN renal = test system: ACHN renal
BT-549 breast = test system: BT-549 breast
CAKI-1 renal = test system: CAKI-1 renal
CCRF-CEM leukemia = test system: CCRF-CEM leukemia
COLO 205 colon = test system: COLO 205 colon
DU-145 prostate = test system: DU-145 prostate
EKVX NSCLC = test system: EKVX NSCLC
HCC-2998 colon = test system: HCC-2998 colon
HCT-116 colon = test system: HCT-116 colon
HCT-15 colon = test system: HCT-15 colon
HL-60(TB) leukemia = test system: HL-60(TB) leukemia
HOP-62 NSCLC = test system: HOP-62 NSCLC
HOP-92 NSCLC = test system: HOP-92 NSCLC
HS 578T breast = test system: HS 578T breast
HT29 colon = test system: HT29 colon
IGROV1 ovarian = test system: IGROV1 ovarian
K-562 leukemia = test system: K-562 leukemia
KM12 colon = test system: KM12 colon
LOX IMVI melanoma = test system: LOX IMVI melanoma
M14 melanoma = test system: M14 melanoma
MALME-3M melanoma = test system: MALME-3M melanoma
MCF7 breast = test system: MCF7 breast
MDA-MB-231 breast = test system: MDA-MB-231 breast
MDA-MB-435 = test system: MDA-MB-435
MDA-MB-468 breast = test system: MDA-MB-468 breast
MOLT-4 leukemia = test system: MOLT-4 leukemia
NCI-H226 lung = test system: NCI-H226 lung
NCI-H23 lung = test system: NCI-H23 lung
NCI-H460 lung = test system: NCI-H460 lung
NCI-H522 lung = test system: NCI-H522 lung
NCI/ADR-RES ovarian = test system: NCI/ADR-RES ovarian
OVCAR-3 ovarian = test system: OVCAR-3 ovarian
OVCAR-4 ovarian = test system: OVCAR-4 ovarian
OVCAR-5 ovarian = test system: OVCAR-5 ovarian
OVCAR-8 ovarian = test system: OVCAR-8 ovarian
PC-3 prostate = test system: PC-3 prostate
RPMI-8226 leukemia = test system: RPMI-8226 leukemia
RXF 393 renal = test system: RXF 393 renal
SF-268 CNS = test system: SF-268 CNS
SF-295 CNS = test system: SF-295 CNS
SF-539 CNS = test system: SF-539 CNS
SK-MEL-2 melanoma = test system: SK-MEL-2 melanoma
SK-MEL-28 melanoma = test system: SK-MEL-28 melanoma
SK-MEL-5 melanoma = test system: SK-MEL-5 melanoma
SK-OV-3 ovarian = test system: SK-OV-3 ovarian
SN12C renal = test system: SN12C renal
SNB-19 CNS = test system: SNB-19 CNS
SNB-75 CNS = test system: SNB-75 CNS
SR leukemia = test system: SR leukemia
SW-620 colon = test system: SW-620 colon
T-47D breast = test system: T-47D breast
TK-10 renal = test system: TK-10 renal
U251 CNS = test system: U251 CNS
UACC-257 melanoma = test system: UACC-257 melanoma
UACC-62 melanoma = test system: UACC-62 melanoma
UO-31 renal = test system: UO-31 renal

For `NS(=O)(=O)c1cccc(Nc2nc(SCC(=O)c3ccc(F)cc3)nc3ccccc23)c1`, the GI50 (786-0 renal) was 39.1 µM, the TGI (786-0 renal) was > 57.7 µM and the GI50 (A498 renal) was > 57.7 µM. The TGI (A498 renal) was > 57.7 µM, the GI50 (A549 NSCLC) was 26.8 µM and the TGI (A549 NSCLC) was > 57.7 µM. The GI50 (ACHN renal) was 24.7 µM, the TGI (ACHN renal) was > 57.7 µM and the GI50 (BT-549 breast) was 31.3 µM. The TGI (BT-549 breast) was > 57.7 µM, the GI50 (CAKI-1 renal) was 13.1 µM and the TGI (CAKI-1 renal) was > 57.7 µM. For the same compound, the GI50 (CCRF-CEM leukemia) was 7.76 µM, the TGI (CCRF-CEM leukemia) was > 57.7 µM and the GI50 (COLO 205 colon) was 26.8 µM. For the same compound, the TGI (COLO 205 colon) was > 57.7 µM, the GI50 (DU-145 prostate) was 19.9 µM and the TGI (DU-145 prostate) was > 57.7 µM. The GI50 (EKVX NSCLC) was 18.4 µM, the TGI (EKVX NSCLC) was > 57.7 µM and the GI50 (HCC-2998 colon) was 15.7 µM. For the same compound, the TGI (HCC-2998 colon) was > 57.7 µM, the GI50 (HCT-116 colon) was 15.3 µM and the TGI (HCT-116 colon) was > 57.7 µM. The GI50 (HCT-15 colon) was 11.6 µM, the TGI (HCT-15 colon) was > 57.7 µM and the GI50 (HL-60(TB) leukemia) was 15 µM. The TGI (HL-60(TB) leukemia) was 48.9 µM, the GI50 (HOP-62 NSCLC) was 22.2 µM and the TGI (HOP-62 NSCLC) was > 57.7 µM. For the same compound, the GI50 (HOP-92 NSCLC) was 16.4 µM, the TGI (HOP-92 NSCLC) was > 57.7 µM and the GI50 (HS 578T breast) was 12.9 µM. The TGI (HS 578T breast) was > 57.7 µM, the GI50 (HT29 colon) was 20 µM and the TGI (HT29 colon) was > 57.7 µM. The GI50 (IGROV1 ovarian) was 9.82 µM, the TGI (IGROV1 ovarian) was > 57.7 µM and the GI50 (K-562 leukemia) was 13 µM. For the same compound, the TGI (K-562 leukemia) was > 57.7 µM, the GI50 (KM12 colon) was 7.42 µM and the TGI (KM12 colon) was > 57.7 µM. For the same compound, the GI50 (LOX IMVI melanoma) was 14.3 µM, the TGI (LOX IMVI melanoma) was > 57.7 µM and the GI50 (M14 melanoma) was 27.2 µM. The TGI (M14 melanoma) was > 57.7 µM, the GI50 (MALME-3M melanoma) was 27.1 µM and the TGI (MALME-3M melanoma) was > 57.7 µM. The GI50 (MCF7 breast) was 3.81 µM, the TGI (MCF7 breast) was > 57.7 µM and the GI50 (MDA-MB-231 breast) was 15.9 µM. For the same compound, the TGI (MDA-MB-231 breast) was > 57.7 µM, the GI50 (MDA-MB-435) was 14.2 µM and the TGI (MDA-MB-435) was > 57.7 µM. For the same compound, the GI50 (MDA-MB-468 breast) was 6.23 µM, the TGI (MDA-MB-468 breast) was 42.8 µM and the GI50 (MOLT-4 leukemia) was 7.43 µM. For the same compound, the TGI (MOLT-4 leukemia) was 41.3 µM, the GI50 (NCI-H226 lung) was 12.1 µM and the TGI (NCI-H226 lung) was > 57.7 µM. For the same compound, the GI50 (NCI-H23 lung) was 16.5 µM, the TGI (NCI-H23 lung) was > 57.7 µM and the GI50 (NCI-H460 lung) was 15.1 µM. For the same compound, the TGI (NCI-H460 lung) was > 57.7 µM, the GI50 (NCI-H522 lung) was 11.7 µM and the TGI (NCI-H522 lung) was 54.3 µM. The GI50 (NCI/ADR-RES ovarian) was 37.3 µM, the TGI (NCI/ADR-RES ovarian) was > 57.7 µM and the GI50 (OVCAR-3 ovarian) was 12.9 µM. For the same compound, the TGI (OVCAR-3 ovarian) was > 57.7 µM, the GI50 (OVCAR-4 ovarian) was 9.34 µM and the TGI (OVCAR-4 ovarian) was > 57.7 µM. For the same compound, the GI50 (OVCAR-5 ovarian) was 24.5 µM, the TGI (OVCAR-5 ovarian) was > 57.7 µM and the GI50 (OVCAR-8 ovarian) was 19.6 µM. The TGI (OVCAR-8 ovarian) was > 57.7 µM, the GI50 (PC-3 prostate) was 16.8 µM and the TGI (PC-3 prostate) was > 57.7 µM. For the same compound, the GI50 (RPMI-8226 leukemia) was 12.7 µM, the TGI (RPMI-8226 leukemia) was > 57.7 µM and the GI50 (RXF 393 renal) was 16.5 µM. For the same compound, the TGI (RXF 393 renal) was > 57.7 µM, the GI50 (SF-268 CNS) was 21 µM and the TGI (SF-268 CNS) was > 57.7 µM. For the same compound, the GI50 (SF-295 CNS) was 14.6 µM, the TGI (SF-295 CNS) was > 57.7 µM and the GI50 (SF-539 CNS) was 20 µM. For the same compound, the TGI (SF-539 CNS) was > 57.7 µM, the GI50 (SK-MEL-2 melanoma) was 13.5 µM and the TGI (SK-MEL-2 melanoma) was > 57.7 µM. For the same compound, the GI50 (SK-MEL-28 melanoma) was 20.4 µM, the TGI (SK-MEL-28 melanoma) was > 57.7 µM and the GI50 (SK-MEL-5 melanoma) was 12.9 µM. The TGI (SK-MEL-5 melanoma) was 54.6 µM, the GI50 (SK-OV-3 ovarian) was 30.4 µM and the TGI (SK-OV-3 ovarian) was > 57.7 µM. The GI50 (SN12C renal) was 17.6 µM, the TGI (SN12C renal) was > 57.7 µM and the GI50 (SNB-19 CNS) was 22.3 µM. The TGI (SNB-19 CNS) was > 57.7 µM, the GI50 (SNB-75 CNS) was 3.64 µM and the TGI (SNB-75 CNS) was > 57.7 µM. For the same compound, the GI50 (SR leukemia) was 15.9 µM, the TGI (SR leukemia) was > 57.7 µM and the GI50 (SW-620 colon) was 18.1 µM. The TGI (SW-620 colon) was > 57.7 µM, the GI50 (T-47D breast) was 3.18 µM and the TGI (T-47D breast) was > 57.7 µM. The GI50 (TK-10 renal) was > 57.7 µM, the TGI (TK-10 renal) was > 57.7 µM and the GI50 (U251 CNS) was 18.6 µM. The TGI (U251 CNS) was > 57.7 µM, the GI50 (UACC-257 melanoma) was 23.4 µM and the TGI (UACC-257 melanoma) was > 57.7 µM. For the same compound, the GI50 (UACC-62 melanoma) was 13.7 µM, the TGI (UACC-62 melanoma) was > 57.7 µM and the GI50 (UO-31 renal) was 15.5 µM. The TGI (UO-31 renal) was > 57.7 µM.
